Results from patent publication US10300065B2, “Method of treating or prevention of atherothrombotic events in patients with history of myocardial infarction” (ASTRAZENECA AB, priority 2015, dated 2019).
Like-named read-outs stand apart in the source and are kept apart here.

Test system: patients with a history of myocardial infarction
Conditions: for TIMI major bleeding events per year if 10,000 patients were started on treatment versus placebo: intention-to-treat data; for Death: (%) / Death: n / Non-Cardiovascular death: (%) / Non-Cardiovascular death: n: intention-to-treat population; for proportion of patients who prematurely discontinued treatment: over the duration of the trial
[1] = 90 mg bid (N = 6988), listed as ticagrelor

Excerpt: Any erroneously treated patients (e.g., randomized to ticagrelor but actually given placebo) were to be accounted for in the actual treatment group.
The primary efficacy endpoint was the composite of cardiovascular death, myocardial infarction, or stroke. Secondary endpoints were cardiovascular death and all-cause mortality. The analysis of secondary endpoints proceeded in a hierarchical fashion, starting with cardiovascular death and then death from any cause. Additional endpoints listed below were evaluated on an exploratory basis. Exploratory efficacy endpoints included substituting coronary heart disease death for cardiovascular death, and the additional end points of urgent coronary revascularization, unstable angina, and transient ischemic attack. The primary safety endpoint was TIMI major bleeding. Other safety endpoints included intracranial hemorrhage (ICH) and fatal bleeding. […] A central clinical events committee whose members were unaware of the treatment assignments adjudicated all efficacy endpoints and bleeding episodes.
Safety analyses included all randomized patients who received at least one dose of study drug and for whom post-dose data were available. Patients were censored at the first of the pre-specified Common Study End Date, withdrawal of consent, or the last clinical event assessment. Safety was analyzed as on-treatment including all events occurring after first dose and within 7 days after the last dose of study drug. […] Event rates are expressed as Kaplan-Meier estimates of cumulative incidence.

CCCSc1nc(N[C@@H]2C[C@H]2c2ccc(F)c(F)c2)c2nnn([C@@H]3C[C@H](OCCO)[C@@H](O)[C@H]3O)c2n1 [Ticagrelor, (1S,2S,3R,5S)-3-[7-{[(1R,2S)-2-(3,4-difluorophenyl)cyclopropyl]amino}-5-(propylthio)-3H-[1,2,3]-triazolo[4,5-d]pyrimidin-3-yl]-5-(2-hydroxyethoxy)cyclopentane-1,2-diol]
TIMI Minor bleeding: HR (60 mg bid vs Placebo): 3.31
TIMI major bleeding events per year if 10,000 patients were started on treatment versus placebo (60 mg bid): 31
Death: (%) (60 mg bid): (4.1) %
Death: n (60 mg bid): 289
Non-Cardiovascular death: (%) (60 mg bid): (1.6) %
Non-Cardiovascular death: n (60 mg bid): 113
proportion of patients who prematurely discontinued treatment (60 mg): 28.7%
Dyspnea, 3-year event rate (90 mg bid): 18.9%
Fatal bleeding: ARI (%) (90 mg bid): −0.15%
Hypotension (90 mg bid): 0.66 events/100 pt years
ICH: ARI (%) (90 mg bid): 0.09%
ICH: NNH (90 mg bid): 1111
TIMI major bleeding: ARI (%) (90 mg bid): 1.54%
TIMI major bleeding: NNH (90 mg bid): 65
frequency of death (including bleeding) (90 mg bid): 4.8%
frequency of death, bleeding events excluded (90 mg bid): 4.4%
median duration of resolved dyspnea adverse events (90 mg bid): 22 days
Adverse event leading to death: (%) (90 mg bid (N = 6988)): (2.3) %
Adverse event leading to death: n (90 mg bid (N = 6988)): 161
Adverse event leading to discontinuation of study drug: (%) (90 mg bid (N = 6988)): (18.7) %
Adverse event leading to discontinuation of study drug: n (90 mg bid (N = 6988)): 1306
Any adverse event: (%) (90 mg bid (N = 6988)): (76.2) %
Any adverse event: n (90 mg bid (N = 6988)): 5327
Any serious adverse event: (%) (90 mg bid (N = 6988)): (21.7) %
Any serious adverse event: n (90 mg bid (N = 6988)): 1514
Bleeding leading to study drug discontinuation: 3-year Kaplan-Meier estimate (90 mg bid (N = 6988)): (7.80) %
Bleeding leading to study drug discontinuation: n (90 mg bid (N = 6988)): 454
Bleeding requiring transfusion: 3-year Kaplan-Meier estimate (90 mg bid (N = 6988)): (2.40) %
Bleeding requiring transfusion: n (90 mg bid (N = 6988)): 122
Bradyarrhythmia adverse event: (%) (90 mg bid (N = 6988)): (1.5) %
Bradyarrhythmia adverse event: n (90 mg bid (N = 6988)): 105
Dyspnea AE: (%) (90 mg bid (N = 6988)): (17.22) %
Dyspnea AE: n (90 mg bid (N = 6988)): 1204
Dyspnea SAE: (%) (90 mg bid (N = 6988)): (0.3) %
Dyspnea SAE: n (90 mg bid (N = 6988)): 22
Dyspnea leading to study drug discontinuation: (%) (90 mg bid (N = 6988)): (6.2) %
Dyspnea leading to study drug discontinuation: n (90 mg bid (N = 6988)): 430
Fatal Bleeding: 3-year Kaplan-Meier estimate (90 mg bid (N = 6988)): (0.11) %
Fatal Bleeding: n (90 mg bid (N = 6988)): 6
Fatal bleeding or non-fatal intracranial hemorrhage: 3-year Kaplan-Meier estimate (90 mg bid (N = 6988)): (0.71) %
Fatal bleeding or non-fatal intracranial hemorrhage: n (90 mg bid (N = 6988)): 33
Gout adverse event: (%) (90 mg bid (N = 6988)): (1.4) %
Gout adverse event: n (90 mg bid (N = 6988)): 99
Intracranial Hemorrhage: 3-year Kaplan-Meier estimate (90 mg bid (N = 6988)): (0.56) %
Intracranial Hemorrhage: n (90 mg bid (N = 6988)): 29
Renal adverse event: (%) (90 mg bid (N = 6988)): (2.4) %
Renal adverse event: n (90 mg bid (N = 6988)): 166
Serious adverse event leading to discontinuation of study drug: (%) (90 mg bid (N = 6988)): (3.7) %
Serious adverse event leading to discontinuation of study drug: n (90 mg bid (N = 6988)): 256
TIMI Major bleeding: 3-year Kaplan-Meier estimate (90 mg bid (N = 6988)): (2.60) %
TIMI Major bleeding: n (90 mg bid (N = 6988)): 127
TIMI Minor bleeding: 3-year Kaplan-Meier estimate (90 mg bid (N = 6988)): (1.31) %
TIMI Minor bleeding: n (90 mg bid (N = 6988)): 66
Bleeding leading to study drug discontinuation: 3-year Kaplan-Meier estimate [1]: 7.8%
Bleeding requiring transfusion: 3-year Kaplan-Meier estimate [1]: 2.4%
Dyspnea leading to study drug discontinuation: (%) [1]: 6.5%
Fatal Bleeding: 3-year Kaplan-Meier estimate [1]: 0.1%
Intracranial Hemorrhage: 3-year Kaplan-Meier estimate [1]: 0.6%
TIMI Major bleeding: 3-year Kaplan-Meier estimate [1]: 2.60%
Bleeding leading to study drug discontinuation: HR (90 mg bid vs Placebo): 5.67
Bleeding requiring transfusion: HR (90 mg bid vs Placebo): 3.75
Dyspnea AE: HR (90 mg bid vs Placebo): 3.55
Dyspnea SAE: HR (90 mg bid vs Placebo): 3.02
Dyspnea leading to study drug discontinuation: HR (90 mg bid vs Placebo): 8.89
Fatal Bleeding: HR (90 mg bid vs Placebo): 0.58
Fatal bleeding or non-fatal intracranial hemorrhage: HR (90 mg bid vs Placebo): 1.20
Intracranial Hemorrhage: HR (90 mg bid vs Placebo): 1.44
TIMI Major bleeding: HR (90 mg bid vs Placebo): 2.69
TIMI Minor bleeding: HR (90 mg bid vs Placebo): 4.15
TIMI major bleeding events per year if 10,000 patients were started on treatment versus placebo (90 mg bid): 41
Death: (%) (90 mg bid): (4.6) %
Death: n (90 mg bid): 326
Non-Cardiovascular death: (%) (90 mg bid): (2.0) %
Non-Cardiovascular death: n (90 mg bid): 142
proportion of patients who prematurely discontinued treatment (90 mg): 32.0%
serum uric acid level increase from baseline (PEGASUS, 60 mg bid): approximately 0.2 mg/dL
Gout, patients (PEGASUS, experimental arm): 1.5%
dyspneic episodes characterized as mild (either dose of ticagrelor): 57%
dyspneic episodes characterized as moderate (either dose of ticagrelor): 38%
dyspnea as a serious adverse event, 3-year rate (patients on ticagrelor): 0.3%
